The text below walks through data of patent US20260293896A1, “PLANT GROWTH REGULATOR, PLANT GROWTH ACCELERATION METHOD, OR PLANT GROWTH-REGULATING PRODUCT” (KUREHA CORPORATION, priority 2022, published 2026).

What all share (assay type): in vivo
For test [1], the system named is rapeseed. The experiment in a line: Evaluation Example 4: Comparison of Elongated Plant Height of Rapeseed. As to conditions: petri dish, 5 mL, 24° C, 7th day after seeding, EGT 1 mM and/or component (A) 1 mM. The method, then: The plant growth regulators of Examples 7 and 8 and Comparative Examples 10 to 12 were prepared so as to attain the concentrations indicated in Table 4 below. EGT, Asn and Lys were commercially available products, and pure water was used as a solvent.
(§1) Into a 9 cm petri dish on which filter paper was spread, 5 mL of the plant growth regulator was added. Ten seeds of rapeseed were sown per one petri dish. In a thermostatic chamber set at room temperature of 24° C., the light period was 16 hours and the dark period was 8 hours. The light conditions were set using a fluorescent lamp (PLANT FLEC, 40 W LED fluorescent lamp for plant growth, electric bulb color, available from Nippon Medical and Chemical Instruments Co., Ltd.) such that the light intensity was 5000 lx in the central part under irradiation with the fluorescent lamp.
(§2) The plant height of the rapeseed on the 7th day after seeding was evaluated.

The test system of test [2] is wheat. The test can be described thus: Evaluation Example 16: Comparison of Elongated Plant Height of Wheat. As to conditions: petri dish, 5 mL, 24° C, 7th day after seeding, EGT 1 mM and/or trehalose 0.01 or 0.1 mM. The method, then: The plant growth regulators of Examples 37 and 38 and Comparative Examples 52 to 54 were prepared so as to attain the concentrations indicated in Table 16 below. EGT and trehalose were commercially available products, and pure water was used as a solvent.
(§3) Into a 9 cm petri dish on which filter paper was spread, 5 mL of the plant growth regulator was added. Ten seeds of wheat were sown per one petri dish. In a thermostatic chamber set at room temperature of 24° C., the light period was 16 hours and the dark period was 8 hours. The light conditions were set using a fluorescent lamp (PLANT FLEC, 40 W LED fluorescent lamp for plant growth, electric bulb color, available from Nippon Medical and Chemical Instruments Co., Ltd.) such that the light intensity was 5000 lx in the central part under irradiation with the fluorescent lamp.
(§4) The plant height of the wheat on the 7th day after seeding was evaluated.

Test [3] has as its system wheat. The experiment in a line: Evaluation Example 15: Comparison of Elongated Plant Height of Wheat. The conditions noted are these: petri dish, 5 mL, 24° C, 7th day after seeding, EGT 1 mM and/or carnitine 10 mM. As for the experimental part:
The plant growth regulators of Example 36 and Comparative Examples 50 and 51 were prepared so as to attain the concentrations indicated in Table 15 below. EGT and carnitine were commercially available products, and pure water was used as a solvent.
as §3, §4

Test [4] has as its system rapeseed. The experiment in a line: Evaluation Example 3: Comparison of Elongated Plant Height of Rapeseed. The conditions noted are these: petri dish, 5 mL, 24° C, 7th day after seeding, EGT 1 mM and/or Arg 1 mM. As for the experimental part: The plant growth regulators of Example 6 and Comparative Examples 8 and 9 were prepared so as to attain the concentrations indicated in Table 3 below. EGT and Arg were commercially available products, and pure water was used as a solvent.
Into a 9 cm petri dish on which filter paper was spread, 5 mL of the plant growth regulator was added. Seven seeds of rapeseed were sown per one petri dish. In a thermostatic chamber set at room temperature of 24° C., the light period was 16 hours and the dark period was 8 hours. The light conditions were set using a fluorescent lamp (PLANT FLEC, 40 W LED fluorescent lamp for plant growth, electric bulb color, available from Nippon Medical and Chemical Instruments Co., Ltd.) such that the light intensity was 5000 lx in the central part under irradiation with the fluorescent lamp.
as §2

In the next test the test system is tomato (Micro Tom). The test can be described thus: Evaluation Example 12: Comparison of Number of Flowers and Buds of Tomato. The conditions noted are these: 50 mL on 32nd, 34th, 36th days, evaluated 83rd day after seeding, EGT 0.1 mM and/or component (A) 0.1 mM. As for the experimental part: The plant growth regulators of Examples 32 and 33 and Comparative Examples 43 to 45 were prepared so as to attain the concentrations indicated in Table 12 below. EGT, Arg and Glu were commercially available products, and pure water was used as a solvent.
In a plastic pot having a diameter of 135 mm and a height of 110 mm, 1 kg of granular soil (Kumiai horticultural soil) was placed, and one individual tomato (Micro Tom) was sown per one pot.
The tomato was managed in a greenhouse set at room temperature of 25° C. Chemical treatment was started 5 weeks after seeding. More specifically, on the 32nd, 34th, and 36th days after seeding, 50 mL of the plant growth regulator was added.
On the 83rd day after seeding, the number of flowers and buds was evaluated.

In test [5] the test system is wheat. The experiment in a line: Evaluation Example 9: Comparison of Elongated Plant Height of Wheat. The conditions noted are these: petri dish, 5 mL, 24° C, 7th day after seeding, EGT 0.5 mM and/or component (A) 0.5 mM. As for the experimental part:
The plant growth regulators of Examples 21 and 22 and Comparative Examples 29 to 31 were prepared so as to attain the concentrations indicated in Table 9 below. EGT, trehalose and inositol were commercially available products, and pure water was used as a solvent.
as §3, §4

Test [6] deals with rapeseed. The experiment in a line: Evaluation Example 7: Comparison of Elongated Plant Height of Rapeseed. The conditions noted are these: petri dish, 5 mL, 24° C, 7th day after seeding, EGT 0.5 mM and/or uracil 0.5 mM. The method, then:
The plant growth regulators of Example 18 and Comparative Examples 24 and 25 were prepared so as to attain the concentrations indicated in Table 7 below. EGT and uracil were commercially available products, and pure water was used as a solvent.
as §1, §2

Test [7] relates to wheat. The test can be described thus: Evaluation Example 8: Comparison of Elongated Plant Height of Wheat. The conditions noted are these: petri dish, 5 mL, 24° C, 7th day after seeding, EGT 0.5 mM and/or component (A) 0.5 mM. The method, then: The plant growth regulators of Examples 19 and 20 and Comparative Examples 26 to 28 were prepared so as to attain the concentrations indicated in Table 8 below. EGT, guanine and thymine were commercially available products, and pure water was used as a solvent.
as §3, §4

`C[N+](C)(C)[C@@H](Cc1c[nH]c(=S)[nH]1)C(=O)[O-]` [Comparative Example 10, L-(+)-ergothioneine]: the “Elongated plant height, ratio to untreated control” value (“Elongated plant height, ratio” for short) in the test with rapeseed [1] turned out to be 1.1.

As to `OC[C@H]1O[C@H](O[C@H]2O[C@H](CO)[C@@H](O)[C@H](O)[C@H]2O)[C@H](O)[C@@H](O)[C@@H]1O` [compound 54, trehalose], in the test with wheat [2], the “Elongated plant height, ratio” value came out at 0.9. Still for that read-out and setting: the figure for `C[N+](C)(C)[C@@H](Cc1c[nH]c(=S)[nH]1)C(=O)[O-]` [Comparative Example 52, L-(+)-ergothioneine] is 1.1. In the case of `C[N+](C)(C)[C@@H](Cc1c[nH]c(=S)[nH]1)C(=O)[O-]` [Comparative Example 50, L-(+)-ergothioneine], the “Elongated plant height, ratio” value in the test on wheat [3] worked out at 1.1. Turning to `C[N+](C)(C)[C@@H](Cc1c[nH]c(=S)[nH]1)C(=O)[O-]` [Comparative Example 8, L-(+)-ergothioneine], the “Elongated plant height, ratio” value with rapeseed [4] stood at 1.2.

For `N=C(N)NCCC[C@H](N)C(=O)O` [compound 44, L-arginine], the “Total number of flowers and buds, ratio to untreated control” value (“Total number of flowers and buds, ratio” below) in the test with tomato (Micro Tom) worked out at 1.0. For the molecule `OC[C@H]1O[C@H](O[C@H]2O[C@H](CO)[C@@H](O)[C@H](O)[C@H]2O)[C@H](O)[C@@H](O)[C@@H]1O` [compound 30, trehalose], in the test on wheat [5], the “Elongated plant height, ratio” value is listed as 1.0. For the molecule `N[C@@H](CCC(=O)O)C(=O)O` [compound 45, L-glutamic acid], the “Total number of flowers and buds, ratio” value with tomato (Micro Tom) was found to be 1.0. As to `O=c1cc[nH]c(=O)[nH]1` [Comparative Example 25, uracil], in the test with rapeseed [6], the “Elongated plant height, ratio” value was found to be 1.0. As to `Cc1c[nH]c(=O)[nH]c1=O` [compound 28, thymine], the “Elongated plant height, ratio” value in the test on wheat [7] came to 0.9. With `C[N+](C)(C)[C@@H](Cc1c[nH]c(=S)[nH]1)C(=O)[O-]` [Comparative Example 43, L-(+)-ergothioneine], the “Total number of flowers and buds, ratio” value with tomato (Micro Tom) came to 1.1. On to `NC(=O)C[C@H](N)C(=O)O` [compound 11, L-asparagine], for which the “Elongated plant height, ratio” value with rapeseed [1] is recorded as 1.1. On the same count and under the same terms, the value for `NCCCC[C@H](N)C(=O)O` [compound 12, L-lysine] was 0.6. Regarding `O[C@H]1[C@H](O)[C@@H](O)[C@H](O)[C@@H](O)[C@H]1O` [compound 31, inositol], in the test with wheat [5], the “Elongated plant height, ratio” value is 0.9.

On to `C[N+](C)(C)[C@@H](Cc1c[nH]c(=S)[nH]1)C(=O)[O-]` [Comparative Example 26, L-(+)-ergothioneine], for which the “Elongated plant height, ratio” value in the test on wheat [7] worked out at 1.1. Still for that read-out and setting: the value for `Nc1nc2nc[nH]c2c(=O)[nH]1` [compound 27, guanine] was 0.9. Take `C[N+](C)(C)[C@@H](Cc1c[nH]c(=S)[nH]1)C(=O)[O-]` [Comparative Example 29, L-(+)-ergothioneine]: in the test on wheat [5], the “Elongated plant height, ratio” value turned out to be 1.1. For `C[N+](C)(C)[C@@H](Cc1c[nH]c(=S)[nH]1)C(=O)[O-]` [Comparative Example 24, L-(+)-ergothioneine], the “Elongated plant height, ratio” value in the test on rapeseed [6] is 1.1. `OC[C@H]1O[C@H](O[C@H]2O[C@H](CO)[C@@H](O)[C@H](O)[C@H]2O)[C@H](O)[C@@H](O)[C@@H]1O` [compound 53, trehalose]: the “Elongated plant height, ratio” value in the test on wheat [2] turned out to be 1.0.

With `N=C(N)NCCC[C@H](N)C(=O)O` [Comparative Example 9, L-arginine], the “Elongated plant height, ratio” value with rapeseed [4] is on record as 0.9. As to `C[N+](C)(C)CC(O)CC(=O)[O-]` (stereo not drawn) [Comparative Example 51, carnitine], the “Elongated plant height, ratio” value in the test on wheat [3] stood at 1.0.
